Reference: PubChem BioAssay (NCI)
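All cell lines were grown in 96-well plates and treated with compound for 48 hours. TGI marks complete inhibition of growth.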

Legend:
Assay in all cases: NCI anticancer screen, dose series, 48 h
HL-60(TB) leukemia = test system: HL-60(TB) leukemia
LXFL 529 NSCLC = test system: LXFL 529 NSCLC
KM12 colon = test system: KM12 colon
UACC-257 melanoma = test system: UACC-257 melanoma
RPMI-8226 leukemia = test system: RPMI-8226 leukemia
M14 melanoma = test system: M14 melanoma
DMS 114 small cell lung = test system: DMS 114 small cell lung
SK-OV-3 ovarian = test system: SK-OV-3 ovarian
ACHN renal = test system: ACHN renal
OVCAR-3 ovarian = test system: OVCAR-3 ovarian
MALME-3M melanoma = test system: MALME-3M melanoma
NCI-H460 lung = test system: NCI-H460 lung
MOLT-4 leukemia = test system: MOLT-4 leukemia
HCC-2998 colon = test system: HCC-2998 colon
SNB-19 CNS = test system: SNB-19 CNS
SK-MEL-5 melanoma = test system: SK-MEL-5 melanoma
OVCAR-5 ovarian = test system: OVCAR-5 ovarian
NCI-H23 lung = test system: NCI-H23 lung
EKVX NSCLC = test system: EKVX NSCLC
KM20L2 colon = test system: KM20L2 colon
U251 CNS = test system: U251 CNS
HT29 colon = test system: HT29 colon
SF-295 CNS = test system: SF-295 CNS
A498 renal = test system: A498 renal
SN12C renal = test system: SN12C renal
HCT-116 colon = test system: HCT-116 colon
TK-10 renal = test system: TK-10 renal
HOP-62 NSCLC = test system: HOP-62 NSCLC
HCT-15 colon = test system: HCT-15 colon
786-0 renal = test system: 786-0 renal
SW-620 colon = test system: SW-620 colon
NCI-H522 lung = test system: NCI-H522 lung
SF-268 CNS = test system: SF-268 CNS
OVCAR-4 ovarian = test system: OVCAR-4 ovarian
A549 NSCLC = test system: A549 NSCLC
K-562 leukemia = test system: K-562 leukemia
CCRF-CEM leukemia = test system: CCRF-CEM leukemia
HOP-18 NSCLC = test system: HOP-18 NSCLC
SNB-75 CNS = test system: SNB-75 CNS
UACC-62 melanoma = test system: UACC-62 melanoma
SNB-78 CNS = test system: SNB-78 CNS
UO-31 renal = test system: UO-31 renal
M19-MEL melanoma = test system: M19-MEL melanoma
SF-539 CNS = test system: SF-539 CNS
DLD-1 colon = test system: DLD-1 colon
SK-MEL-28 melanoma = test system: SK-MEL-28 melanoma
IGROV1 ovarian = test system: IGROV1 ovarian
COLO 205 colon = test system: COLO 205 colon
NCI-H226 lung = test system: NCI-H226 lung
OVCAR-8 ovarian = test system: OVCAR-8 ovarian
CAKI-1 renal = test system: CAKI-1 renal
DMS 273 small cell lung = test system: DMS 273 small cell lung
RXF 393 renal = test system: RXF 393 renal
XF 498 CNS = test system: XF 498 CNS
HOP-92 NSCLC = test system: HOP-92 NSCLC
SR leukemia = test system: SR leukemia
LOX IMVI melanoma = test system: LOX IMVI melanoma

## CCOc1ccc(NC(=O)CC2Sc3ccccc3NC2=O)cc1 (centres undefined)
HL-60(TB) leukemia
  TGI: > 100 µM
LXFL 529 NSCLC
  TGI: > 100 µM
KM12 colon
  TGI: 95.2 µM
UACC-257 melanoma
  TGI: > 100 µM
RPMI-8226 leukemia
  TGI: > 100 µM
M14 melanoma
  TGI: > 100 µM
DMS 114 small cell lung
  TGI: > 100 µM
SK-OV-3 ovarian
  TGI: > 100 µM
ACHN renal
  TGI: > 100 µM
OVCAR-3 ovarian
  TGI: > 100 µM
MALME-3M melanoma
  TGI: > 100 µM
NCI-H460 lung
  TGI: > 100 µM
MOLT-4 leukemia
  TGI: > 100 µM
HCC-2998 colon
  TGI: > 100 µM
SNB-19 CNS
  TGI: > 100 µM
SK-MEL-5 melanoma
  TGI: > 100 µM
OVCAR-5 ovarian
  TGI: > 100 µM
NCI-H23 lung
  TGI: > 100 µM
EKVX NSCLC
  TGI: > 100 µM
KM20L2 colon
  TGI: > 100 µM
U251 CNS
  TGI: > 100 µM
HT29 colon
  TGI: > 100 µM
SF-295 CNS
  TGI: > 100 µM
A498 renal
  TGI: > 100 µM
SN12C renal
  TGI: > 100 µM
HCT-116 colon
  TGI: 76.2 µM
TK-10 renal
  TGI: > 100 µM
HOP-62 NSCLC
  TGI: > 100 µM
HCT-15 colon
  TGI: > 100 µM
786-0 renal
  TGI: 39.3 µM
SW-620 colon
  TGI: 33.5 µM
NCI-H522 lung
  TGI: > 100 µM
SF-268 CNS
  TGI: > 100 µM
OVCAR-4 ovarian
  TGI: 39.8 µM
A549 NSCLC
  TGI: > 100 µM
K-562 leukemia
  TGI: > 100 µM
CCRF-CEM leukemia
  TGI: > 100 µM
HOP-18 NSCLC
  TGI: 54 µM
SNB-75 CNS
  TGI: 95 µM
UACC-62 melanoma
  TGI: > 100 µM
SNB-78 CNS
  TGI: > 100 µM
UO-31 renal
  TGI: > 100 µM
M19-MEL melanoma
  TGI: > 100 µM
SF-539 CNS
  TGI: > 100 µM
DLD-1 colon
  TGI: > 100 µM
SK-MEL-28 melanoma
  TGI: > 100 µM
IGROV1 ovarian
  TGI: > 100 µM
COLO 205 colon
  TGI: > 100 µM
NCI-H226 lung
  TGI: > 100 µM
OVCAR-8 ovarian
  TGI: 42.9 µM
CAKI-1 renal
  TGI: > 100 µM
DMS 273 small cell lung
  TGI: > 100 µM

## CCCCCCCCCCCCCCCC(=O)NCC(COP(=O)([O-])OCC[N+](C)(C)C)OCC (centres undefined)
LXFL 529 NSCLC
  TGI: 27.8 µM
KM12 colon
  TGI: 3.01 µM
UACC-257 melanoma
  TGI: 30.4 µM
RPMI-8226 leukemia
  TGI: 9.76 µM
M14 melanoma
  TGI: 24.7 µM
DMS 114 small cell lung
  TGI: 29.8 µM
SK-OV-3 ovarian
  TGI: 42.6 µM
ACHN renal
  TGI: 29.1 µM
OVCAR-3 ovarian
  TGI: 18.9 µM
MALME-3M melanoma
  TGI: 30.8 µM
NCI-H460 lung
  TGI: 7.28 µM
RXF 393 renal
  TGI: 5.3 µM
MOLT-4 leukemia
  TGI: 10.1 µM
HCC-2998 colon
  TGI: 3.1 µM
SNB-19 CNS
  TGI: 11 µM
SK-MEL-5 melanoma
  TGI: 33.9 µM
XF 498 CNS
  TGI: 25.5 µM
OVCAR-5 ovarian
  TGI: 22 µM
NCI-H23 lung
  TGI: 39.3 µM
EKVX NSCLC
  TGI: 36.5 µM
KM20L2 colon
  TGI: 13.7 µM
U251 CNS
  TGI: 14.4 µM
HT29 colon
  TGI: 16.3 µM
SF-295 CNS
  TGI: 18.6 µM
SN12C renal
  TGI: 25 µM
HCT-116 colon
  TGI: 23.9 µM
HOP-92 NSCLC
  TGI: 15.6 µM
TK-10 renal
  TGI: 3.95 µM
HOP-62 NSCLC
  TGI: 20.1 µM
HCT-15 colon
  TGI: 19.3 µM
786-0 renal
  TGI: 5.82 µM
SW-620 colon
  TGI: 27.4 µM
SF-268 CNS
  TGI: 27 µM
OVCAR-4 ovarian
  TGI: 17.7 µM
A549 NSCLC
  TGI: 45.7 µM
SR leukemia
  TGI: 18.6 µM
HOP-18 NSCLC
  TGI: 4.53 µM
LOX IMVI melanoma
  TGI: 34.4 µM
SNB-75 CNS
  TGI: 23 µM
UACC-62 melanoma
  TGI: 22.3 µM
SNB-78 CNS
  TGI: 29.6 µM
UO-31 renal
  TGI: 32.9 µM
M19-MEL melanoma
  TGI: 16.2 µM
SF-539 CNS
  TGI: 29.8 µM
DLD-1 colon
  TGI: 16.9 µM
SK-MEL-28 melanoma
  TGI: 36.6 µM
IGROV1 ovarian
  TGI: 16 µM
COLO 205 colon
  TGI: 5.1 µM
NCI-H226 lung
  TGI: 13.6 µM
OVCAR-8 ovarian
  TGI: 17.2 µM
CAKI-1 renal
  TGI: 35.2 µM
DMS 273 small cell lung
  TGI: 5 µM
